Values quoted from earlier work as cited in patent US12276869B1, “WS12-releasing contact lens” (CooperVision International Limited, priority 2022, dated 2025).

Conditions: incorporated into silicone hydrogel contact lenses

COc1ccc(NC(=O)C2CC(C)CCC2C(C)C)cc1 (stereo not shown) [WS12, N-(4-Methoxyphenyl)-5-methyl-2-(1-methylethyl)cyclohexanecarboxamide]
stability to autoclave sterilization in silicone hydrogel contact lenses: withstand autoclave sterilization without degradation or leaching into the packaging solution
